{"source": "patent US20260027078A1", "about": "“Cyclopropane Fatty Acid Modulators Of Peroxisome Proliferator-Activated Receptors” (The Regents of the University of California, priority 2022, published 2026)"}
{"tested_on": "Angptl4 mRNA expression in 3T3-L1 cells", "experiment": "Angptl4 mRNA expression (RT-qPCR) in 3T3-L1 cells", "type": "cell-based, murine", "conditions": "antagonist 0, 0.1, 1 and 10 μM, against GW7647, GW501516 or rosiglitazone respectively", "description": "To study the effect of CpFAs on the regulation of Angptl4 expression, Angptl4 mRNA expression levels were quantified by real-time qPCR in cultured murine 3T3-L1 cells. […] FIG. 7A-C show a dose-dependent response to representative CpFAs in murine 3T3-L1 cells.\n3T3-L1 cell culture and PPAR activation: 3T3-LI preadipocytes were cultured in growth medium (high glucose Dulbecco's Modified Eagle Medium (DMEM) containing 10% calf serum (CS), 1× Pencillin/Streptomycin, and 1× Glutamax) and seeded in multi-well (12-or 24-well) plates. PPAR specificity of gene target activation was determined in 3T3-L1 preadipocytes using well-described agonists and antagonists for PPAR-α, PPAR-δ, or PPAR-γ. On the day of treatment, preadipocytes were serum starved in 0.25% CS in growth medium for 2-4 hours. Cells were pretreated with increasing concentrations (0, 0.1, 1 and 10 μM) of PPAR antagonists (GW6471 for PPAR-α, GSK3787 for PPARδ, and T0070907 for PPARγ) in serum starve medium. After 1 hour, selective PPAR agonists were added (GW7647 (PPAR-α), GW501516 (PPAR-δ), and rosiglitazone (PPAR-γ)) and incubated for 24 hours. Lysates were collected for RNA extraction. […] CpFA treatments (final concentrations of 37.5, 75, and 150 μM) were prepared in 0.25% serum starve media plus 3% BSA, followed by heating (55° C.) and sonicating for 30 minutes. Treatments were allowed to cool to 37° C. and then added to 3T3-L1 preadipocytes and incubated for 24 hours. Lysates for RNA isolation were collected.\nAngptl4 expression analyses: RNA was isolated from cell lysates using Qiagen 96 Total RNA kit. cDNA was synthesized and plated in triplicates in 384-well plates. RT-qPCR was performed using TaqMan Fast-Advanced master mix and TaqMan reagents and primers (18S, rplp0, angplt4) and analyzed using a Thermo Fisher Scientific QuantStudio 6 Flex PCR system. Relative gene expression was analyzed using the fold difference algorithm (2∧(−ΔΔCt)) using the geomean of 2 housekeeping genes (18S, RPLPO) compared to relevant vehicle control."}
{"smiles": "O=C(NCCS(=O)(=O)c1ccc(C(F)(F)F)cn1)c1ccc(Cl)cc1", "note": "[GSK3787]", "reversal of synthetic PPAR agonist activity on Angptl4 mRNA expression": "concentration-dependent ability"}
{"smiles": "CCC(=O)NC[C@H](Cc1ccc(OCCc2nc(-c3ccccc3)oc2C)cc1)N/C(C)=C\\C(=O)c1ccc(C(F)(F)F)cc1", "note": "[GW6471]", "reversal of synthetic PPAR agonist activity on Angptl4 mRNA expression": "concentration-dependent ability"}
{"smiles": "O=C(Nc1ccncc1)c1cc([N+](=O)[O-])ccc1Cl", "note": "[T0070907]", "reversal of synthetic PPAR agonist activity on Angptl4 mRNA expression": "concentration-dependent ability"}
